Results as given in article PMC11952846, “The sterol-regulating human ARV1 binds cholesterol and phospholipids through its conserved ARV1 homology domain” (The Journal of Biological Chemistry, 2025).
Where a chain is given by its changes, count along the chain named.

Tests used:
[1] = target: T1, GST-ARV1 (full-length ARV1) (Homo sapiens, UniProt Q9H2C2); assay: Lipid overlay far western; type: binding
T1 construct: Expresses full length ARV1; made in house; host or cells: E. coli BL21 (pGEX-4T1)
T1 sequence (Q9H2C2 1-271): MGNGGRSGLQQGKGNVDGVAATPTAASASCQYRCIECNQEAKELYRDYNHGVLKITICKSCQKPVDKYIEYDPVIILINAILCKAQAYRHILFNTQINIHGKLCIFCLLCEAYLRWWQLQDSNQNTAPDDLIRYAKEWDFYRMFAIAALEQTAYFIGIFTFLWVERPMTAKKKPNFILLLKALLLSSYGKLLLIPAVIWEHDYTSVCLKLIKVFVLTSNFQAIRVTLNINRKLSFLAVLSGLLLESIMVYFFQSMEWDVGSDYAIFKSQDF
Method: (§1) Lipid overlays were blocked in TBST-BSA (100 mM Tris–HCl buffer, pH 7.5, 150 mM NaCl, 0.5% Tween 20, 3% bovine serum albumin) for 1 h and subsequently washed eight separate times with TBST for 2 min each. Overlays were incubated with 0.5 μg/ml GST-tagged or 6XHIS-tagged proteins in 3% TBST-BSA buffer containing 0.1% Triton X-100, for 1 h at room temperature and washed as above. Overlays were incubated with either anti-GST or anti-6XHIS monoclonal antibodies at a 1:1000 dilution in TBST-BSA for 1 h at room temperature followed by eight washes in TBST. Overlays were visualized using Immobilon Western Chemiluminescent horseradish peroxidase substrate and protein–lipid interaction was detected using a GE ImageQuant LAS 3000 imager.

GST-ARV1-N98 = target: T2, GST-ARV1-N98 (Homo sapiens, UniProt Q9H2C2); assay: Lipid overlay far western; type: binding
T2 construct: Expresses amino-terminal 98 amino acids of ARV1; made in house; host or cells: E. coli BL21 (pGEX-4T1)
T2 sequence (Q9H2C2 1-98): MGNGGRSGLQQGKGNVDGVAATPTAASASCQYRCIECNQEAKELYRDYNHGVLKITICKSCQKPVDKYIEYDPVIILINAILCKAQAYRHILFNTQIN
Method: as §1

GST-ARV1-N50 = target: T3, GST-ARV1-N50 (Homo sapiens, UniProt Q9H2C2); assay: Lipid overlay far western, truncation; type: binding; settings: compared to ARV1-N98 / ARV1-N70
T3 construct: Expresses amino-terminal 50 amino acids of ARV1; made in house; host or cells: E. coli BL21 (pGEX-4T1)
T3 sequence (Q9H2C2 1-50): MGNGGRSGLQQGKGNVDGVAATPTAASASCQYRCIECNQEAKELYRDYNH
Method: as §1

GST-ARV1-N98 C58/C61A = target: T4, GST-ARV1-N98 C58/C61A (Homo sapiens, UniProt Q9H2C2, C58A/C61A); assay: Liposome binding assay, site-directed mutant; settings: PC:PL, sulfatide or PI(4)P liposomes
T4 construct: Expresses amino-terminal 98 amino acids of ARV1; made in house; host or cells: E. coli BL21 (pGEX-4T1)
T4 sequence (Q9H2C2 1-98 C58A/C61A): T2 sequence (Q9H2C2 1-98) with C58A, C61A
Method: (§2) Lyophilized lipids were reconstituted in chloroform at 10 mg/ml and stored in glass tubes with Teflon tops at −20 °C until use. One milliliter of 10 mg/ml stock was dried under a stream of nitrogen in a glass tube until a lipid cake/film was formed. The lipid cake was then rehydrated in BLT rehydration buffer (5 mM Tris/HCl, pH 7.4, containing 150 mM NaCl) to a concentration of 1 mg/ml. Lipid suspensions were subjected to three freeze/thaw cycles using a dry ice ethanol/[…] water bath to encapsulate the buffer and improve liposome formation. The suspension and lipid extruder were equilibrated to temperature for 10 min and liposomes were extruded using […] polycarbonate membranes (Avestin). Liposomes were made by mixing stock lipid PL (1 mg/ml) with PC (10 mg/ml).
(§3) Sulfatide liposomes were generated as previously described ([94]). All lipids were resuspended in organic solvents as per manufacturer’s instructions. Liposomes were prepared with mixing PC:PE:cholesterol:sulfatides (1:1:1:4) and subsequently dried down by lyophilization to obtain lipid films. Lipids were hydrated in 20 mM Tris–HCL, pH 6.8, containing 100 mM NaCl at a concentration of 1 mg/ml.
(§4) PI(4)P liposomes were generated as described by Knodler et al. ([95]), with some modifications. Briefly, liposomes were generated at a lipid concentration of 10 mg/ml. Liposomes contained PC (60%), PI (30%), PE (8%), and PI(4)P (2%). Lipid solution was dried down and resuspended in liposome buffer (20 mM Hepes–HCL, pH 7.4, containing 1 mM EDTA and 50 mM potassium acetate). Liposomes were formed by sonication on ice.
(§5) Liposomes were serial diluted in floatation buffer (100 mM NaCl, 2 mM EDTA, pH 5.5) to a final concentration of 0.1 mg/ml. Nine hundred microliters of liposome solution was placed in clear ultracentrifuge tubes and mixed with 100 μl of 0.01 μg/ml of protein. The liposome/protein solution was incubated at room temperature for 1 h with occasional shaking. An initial 100 μl of liposome/protein solution (liposomes) was removed and the remaining 900 μl was centrifuged at 50,000g for 20 min at 4 °C. The pellet was resuspended in 800 μl of fresh floatation buffer, centrifuged as above, and 800 μl of supernatant was removed (wash 1). This was repeated a second time and again 800 μl of supernatant was removed (wash 2). The final pellet was resuspended in 100 μl of floatation buffer plus SDS treatment buffer (pellet). Thirty microliters of each fraction was run on a 15% SDS-PAGE gel and probed with an anti-GST monoclonal antibody at a 1:1500 dilution.

6XHIS-ARV1-N98 C34/C37A = target: T5, 6XHIS-ARV1-N98 C34/C37A (Homo sapiens, UniProt Q9H2C2, C34A/C37A); assay: Lipid overlay far western, site-directed mutant; type: binding; settings: compared to the ARV1-N98 protein
T5 construct: Expressing amino-terminal 98 amino acids of ARV1; made in house; host or cells: E. coli BL21 (pET-28a(+))
T5 sequence (Q9H2C2 1-98 C34A/C37A): T2 sequence (Q9H2C2 1-98) with C34A, C37A
Method in brief: (§6)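 Immobilized lipids were exposed to 0.5 μg/ml tagged ARV1 constructs for 1 h at room temperature following BSA blocking.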

6XHIS-ARV1-N98 C58/C61A = target: T6, 6XHIS-ARV1-N98 C58/C61A (Homo sapiens, UniProt Q9H2C2, C58A/C61A); assay: Lipid overlay far western, site-directed mutant; type: binding; settings: compared to the ARV1-N98 protein
T6 construct: Expressing amino-terminal 98 amino acids of ARV1; made in house; host or cells: E. coli BL21 (pET-28a(+))
T6 sequence (Q9H2C2 1-98 C58A/C61A): T2 sequence (Q9H2C2 1-98) with C58A, C61A
Method in brief: as §6

GST-ARV1-N98 K67A = target: T7, GST-ARV1-N98 K67A (Homo sapiens, UniProt Q9H2C2, K67A); assay: Liposome binding assay, site-directed mutant; settings: PC:PL, sulfatide liposomes
T7 construct: Expresses amino-terminal 98 amino acids of ARV1; made in house; host or cells: E. coli BL21 (pGEX-4T1)
T7 sequence (Q9H2C2 1-98 K67A): T2 sequence (Q9H2C2 1-98) with K67A
Method: as §2, §3, §4, §5

GST-ARV1-N98 N94A = target: T8, GST-ARV1-N98 N94A (Homo sapiens, UniProt Q9H2C2, N94A); assay: Liposome binding assay, site-directed mutant; settings: PC:PL, sulfatide or PI(4)P liposomes
T8 construct: Expresses amino-terminal 98 amino acids of ARV1; made in house; host or cells: E. coli BL21 (pGEX-4T1)
T8 sequence (Q9H2C2 1-98 N94A): T2 sequence (Q9H2C2 1-98) with N94A
Method: as §2, §3, §4, §5

[2] = lipid-embedded membrane strips, incl. sphingolipid strip
[3] = PIP lipid membrane strip, 100pmol-1.56pmol per spot

Molecule | lipid-protein interaction [1, 2] | lipid-protein interaction (GST-ARV1-N98; [2]) | change of lipid-protein interaction (GST-ARV1-N50) | liposome binding (GST-ARV1-N98 C58/C61A) | change of lipid-protein interaction (6XHIS-ARV1-N98 C34/C37A) | change of lipid-protein interaction (6XHIS-ARV1-N98 C58/C61A) | liposome binding (GST-ARV1-N98 K67A) | liposome binding (GST-ARV1-N98 N94A) | lipid-protein interaction [1, 3] | lipid-protein interaction (GST-ARV1-N98; [3])
CCCCC/C=C\C/C=C\CCCCCCCC(=O)OC[C@H](COP(=O)(O)OCC(O)COP(=O)(O)OC[C@@H](COC(=O)CCCCCCC/C=C\C/C=C\CCCCC)OC(=O)CCCCCCC/C=C\C/C=C\CCCCC)OC(=O)CCCCCCC/C=C\C/C=C\CCCCC (some centres unmarked) [CL, cardiolipin] | interacted | interacted | eliminated |  |  |  |  |  |  | 
CCCCCCCCCCCCCCCC(=O)OC[C@H](COP(=O)(O)O)OC(=O)CCCCCCCCCCCCCCC [PA, phosphatidic acid] |  |  |  | did not bind |  |  |  |  |  | 
CCCCCCCC/C=C\CCCCCCCC(=O)OC[C@H](COP(=O)(O)OCC(O)CO)OC(=O)CCCCCCC/C=C\CCCCCCCC (some centres unmarked) [PG, phosphatidylglycerol] | weakly | interacted | eliminated |  | weakened or eliminated | weakened or eliminated | unable to bind | very weak |  | 
CCCCCCCCCCCCCCCCCC(=O)OC[C@H](COP(=O)(O)OC[C@H](N)C(=O)O)OC(=O)CCCCCCCCCCCCCCCCC [PS, phosphatidylserine] | interacted | interacted | restored |  | enhanced | enhanced |  |  |  | 
CCCCCC(=O)O[C@H](COC(=O)CCCCCNC(=O)CCCC[C@@H]1SC[C@@H]2NC(=O)N[C@@H]21)COP(=O)(O)O[C@H]1[C@H](O)[C@@H](O)[C@H](OP(=O)(O)O)[C@@H](O)[C@H]1O [reference compound] | weakly | interacted |  | did not bind | enhanced interactions |  |  | lost the ability to bind | weakly | interacted
phosphatidylethanolamine [PE] | not seen | not seen |  |  |  |  | showed binding |  |  | 
